Source: US12357620B2 (New York Medical College, priority 2019, dated 2025)
“Also recorded” adds a separate entry of the source.

What was measured:
[1] = test system: urinary 3-IS; test: Urinary 3-IS, total intestinal microbial load, in SCD patients; assay type: in vivo, human; conditions: after being started on oral rifaximin
[2] = test system: circulating aged neutrophils (CANs); test: Circulating aged neutrophils (CANs) by multicolor flow cytometry in SCD patients on rifaximin; assay type: in vivo, human
Text: (§1) (ClinicalTrials.gov Identifier: NCT03719729). There were eight males and five females. Ten patients had HbSS, two HbSß^0thal, and one HbSC. Their median age was 29 years (range 24-56). The median number of VOC in the previous 12 months was 4.5 (range 2-13) and number of days needing intravenous opioid analgesia (IOA) was 25.5 days (range 8-198). In 12 of the 13 patients, the VOC was in the form of musculo-skeletal pain typical in distribution for the VOC that normally affected individual patients and in one patient, the VOC was predominantly in the form of recurrent priapism. Five of the patients were already taking hydroxyurea and none L-glutamine or on a transfusion program. Six patients were taking oral opioid at home for chronic pain. The study ran between November 2018 and early August 2019, covering the winter months when most of the patients reported having most frequent VOC. […] CANs were measured by multicolor flow cytometry. Neutrophils were gated by Gr-1^hi CD115^lo SSC^hi and CANs by CD62L^lo CXCR4^hi within the neutrophil population.

[3] = test system: patients with SCD; test: Quality of Life survey using the FANTLC questionnaire; assay type: in vivo, human
Text: Four aspects of QoL issues were examined: Physical well-being, Social well-being, Emotional well-being, and Functional well-being. The scores for response for each of the question were on a scale of 0-4 (0=not at all; 4=very much). As a group, the median score for response to the question “I have pain” decreased from 3.5 to 2 (p=0.08). When the two patients who reported only slight pain before the study (score of 0 or 1) were excluded from the analysis, the median score decreased from 4 to 3 (p=0.04). Changes in the functional well-being of the subjects was examined. […] However, when three subjects were excluded who reported excellent functional well-being even before the study (scores of 3 o 4 for all 7 questions) from the analysis, there was an improvement in the functional well-being of the 9 patients, with the median composite score increased from 14 to 16 (p=0.06).

[4] = test system: patients with SCD; test: Clinical trial NCT03719729: VOC episodes and days needing intravenous opioid analgesia; assay type: in vivo, human
Text: as §1
(§2) Twelve of the 13 patients accrued to the study were evaluable for response. […] The mean self-reported medication compliance of the intended doses was 86% (range 50-100). The median number of VOC during the study period decreased from the expected 2.25 (range 1-6.5) per 6 months to 1 per 6 months (range 0-4) (p=0.003) (FIG. 8). […] Their self-reported medication compliance was 100%. The median decrease in days needing IOA over the six-month study-period was 9 (range 1-55), and the median % reduction was 82 (range 20-100) (p=0.008) (FIG. 9). Total number of days needing IOA was reduced from the expected 254 in six months to 98 during the study period. […] Reported adverse events: 1 case of self-limiting probable viral gastroenteritis (culture negative, C. diff negative by PCR) and 2 cases of increased thirst. Slight nausea was common in the first week.

[5] = test system: serum LPS; test: Serum lipopolysaccharides (LPS), bacterial translocation, in SCD patients; assay type: in vivo, human; conditions: all treated patients vs pre-treatment; to levels comparable to controls without SCD
[6] = test system: serum iFABP; test: Serum intestinal Fatty Acid Binding Protein (iFABP), intestinal injury, in SCD patients; assay type: in vivo, human; conditions: 12 SCD patients following rifaximin; to levels comparable to controls without SCD
[7] = test system: intestinal microbiome; test: 16S rRNA analysis of stool specimens for changes in intestinal microbiome; assay type: in vivo, human; conditions: during vs pre-rifaximin treatment
Text: Relative abundances were transformed with the additive log ratio (alr), prior to calculating the difference, to reduce the spurious correlations associated with compositional data. Positive differences signify increased abundance post treatment. Histograms represent the frequency of differences between during and pre-rifaximin treatment alr values, where an increase of abundance during treatment is indicated by a shift of the distribution towards the right.

[8] = test system: serum CD62L; test: Serum CD62L, marker of neutrophil activation, in SCD patients; assay type: in vivo, human; conditions: SCD subjects following rifaximin treatment
[9] = test system: patients with SCD; test: Clinical trial: laboratory analyses, tolerability and adverse events; assay type: in vivo, human
Text: as §1, §2

[10] = test system: Clostridium difficile; conditions: cited from earlier work

## CO[C@H]1/C=C/O[C@@]2(C)Oc3c(C)c(O)c4c(O)c(c5c(nc6cc(C)ccn65)c4c3C2=O)NC(=O)/C(C)=C\C=C\[C@H](C)[C@H](O)[C@@H](C)[C@@H](O)[C@@H](C)[C@H](OC(C)=O)[C@@H]1C [rifaximin]
[1]
  change in urinary 3-IS: drops and drop
[2]; SCD patients, 550 mg twice a day, after 2-4 weeks, range 2.63-20.25, pre-treatment median 12.65% [range 6.07-40.05], two-tailed p=0.0036
  median CANs after rifaximin therapy: 4.55%
[2]; all twelve patients, after 2-4 weeks of rifaximin
  change in CANs after being started on rifaximin: marked reduction; also recorded: dramatic reduction
[2]; two patients whose CANs were analyzed
  CANs at the three-month time-point: continued to decrease
[3]; 9 patients, three with excellent baseline excluded, before 14, p=0.06
  median composite score of functional well-being: 16
[3]; after three months of rifaximin, before 1, p=0.048
  median score to the question "I am enjoying the things I usually do for fun": 2.5
[3]; after three months of rifaximin, before 2, p=0.026
  median score to the question "I am able to enjoy life": 2.5
[3]; following rifaximin
  functional well-being, as a group: not any significant difference
[3]; following rifaximin therapy
  emotional and social well-being: No significant change
[3]; scale 0-4, as a group, before rifaximin 3.5, p=0.08
  median score for response to the question "I have pain": 2
[3]; scale 0-4, before rifaximin 4, p=0.04
  median score "I have pain", two patients with only slight pain excluded: 3
[4]; 12 patients, six months of rifaximin, range 0-4, expected 2.25 (range 1-6.5) per 6 months, p=0.003
  median number of VOC during the study period: 1 per 6 months
[4]; expected 254 in six months
  total number of days needing IOA during the study period: 98 days
[4]; self-reported medication compliance 100%
  response of the one patient whose VOC was predominantly priapism: did not respond
[4]; six-month study period vs expected, range 1-55
  median decrease in days needing IOA: 9 days
[4]; six-month study period vs expected, range 20-100, p=0.008
  median % reduction in days needing IOA: 82%
[5]
  change in serum LPS levels: dropped significantly
[6]
  change in serum iFABP: dropped significantly
[7]
  abundance of Akkermansia in stool: trend towards increased abundance
  abundance of Bacteroides in stool: increase in the abundance
  abundance of Escherichia-Shigella in stool: trend towards increased abundance
[8]
  change in serum CD62L: drop and significant drop
[9]; both, human, in vivo, 6 months
  adverse event: increased thirst: 2 cases
[9]; culture negative, C. diff negative by PCR, 12 patients
  adverse event: self-limiting probable viral gastroenteritis: 1 case
[9]; human, in vivo
  adverse event: slight nausea: common
  change in bilirubin: did not show any significant change
  change in haptoglobin: did not show any significant change
  change in hemoglobin: did not show any significant change
  change in serum lactate dehydrogenase: did not show any significant change
  change in white cell counts: did not show any significant change
[10]
  activity against Clostridium difficile: has activities against Clostridium difficile
